Data as given in patent publication US11311462B2, “Adhesive monomers for dental materials” (Mitsui Chemicals, Inc., priority 2017, dated 2022).

Assay: Three-point bending test of cured product
Type: physicochemical
Procedure: The composition prepared as described above was packed in a 2×2×25 mm SUS mold, covered with a cover film, and then irradiated with light from a dental visible light irradiator (α Light V, manufactured by J. Morita Tokyo MFG. Corp.) for 3 minutes on each side, namely, for a total of 6 minutes on both sides to cure the composition. The cured product was stored in deionized water at 37° C. for 24 hours, and then subjected to a three-point bending test with a general-purpose tester (Precise Versatile Material Tester 210X, manufactured by INTESCO Co., Ltd.) under conditions in which the distance between supports was 20 mm and the cross head speed was 1.0 mm/min. The results of the bending test of the cured products of the compositions to be used as the dental materials are shown in Table 2.

[1] = Table 2, composition: compound 1.80 g, UDMA 2.5 g, TEGDMA 0.74 g, plus 0.5 parts by weight TPO, cured product stored in deionized water at 37° C. 24 hours
[2] = Table 3, composition: compound 60, UDMA 30, TEGDMA 10 parts by weight, plus 0.5 parts TPO
[3] = Table 5, filled pasty composition in parts by weight: compound 8.0, UDMA 20, TEGDMA 10, 4-META 2.0, CQ 0.2, 2-butoxyethyl 4-(dimethylamino)benzoate 0.4, glass filler 59

Compound | Cured product bending test result Elastic modulus [1] [GPa] | Cured product bending test result Maximum stress [1] [MPa] | Cured product bending test result Elastic modulus [2] [GPa] | Cured product bending test result Maximum stress [2] [MPa] | Cured product bending test result Elastic modulus [3] [GPa]
C=C(C)C(=O)OCCOCCNC(=O)OCC(COC(=O)NCCOCCOC(=O)C(=C)C)OP(=O)(O)O [Compound 6] | 2.0 | 89 | 1.3 | 66 | 
C=C(C)C(=O)OCCNC(=O)OCC(COCC(COC(=O)NCCOC(=O)C(=C)C)OP(=O)(O)O)OC(=O)NCCOC(=O)C(=C)C (stereo not drawn) [Compound 4] | 2.4 | 102 | 2.3 | 88 | 
C=C(C)C(=O)OCCCCCCCCCCOP(=O)(O)O [MDP, 10-methacryloyloxydecyl dihydrogen phosphate, reference compound] | 1.7 | 85 | 0.32 | 22 | 5.7
C=C(C)C(=O)OCCNC(=O)OCC(COC(=O)NCCOC(=O)C(=C)C)OP(=O)(O)O [Compound 2] | 2.3 | 102 | 2.2 | 92 | 6.5
